In patent US20250136606A1, “MODULATORS OF TRPML, THEIR COMPOSITIONS AND METHODS OF USE” (Caraway Therapeutics, Inc., priority 2021, published 2025):

Assays:
Assay type in all cases: cell-based
Details in all cases: fluorescent calcium assay
[1] = biological target: TRPML1 (Homo sapiens, UniProt Q9GZU1); assay: Fluorescent TRPML1 assay (Fluo4-AM calcium fluorescence in doxycycline-induced HEK-293 Trex cells)
Method in brief: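 HEK-293 Trex cells stably expressing surface-directed mutant human TRPML1, induced with 0.5 µg/mL doxycycline overnight, were loaded with 1 µM Fluo4-AM and added to compound (6 nM–20 µM final, half-log steps, triplicate) in Ringer's with 10 mM calcium. Fluorescence ex 480/em 540; EC50 by non-linear regression versus plate controls.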

[2] = biological target: T1, TRPML2 (Homo sapiens, UniProt Q8IZK6); assay: Fluorescent TRPML2 assay (performed as for TRPML1, substituting the TRPML2 subtype)
T1 construct: expressed in transfected cells
T1 sequence (Q8IZK6 1-566): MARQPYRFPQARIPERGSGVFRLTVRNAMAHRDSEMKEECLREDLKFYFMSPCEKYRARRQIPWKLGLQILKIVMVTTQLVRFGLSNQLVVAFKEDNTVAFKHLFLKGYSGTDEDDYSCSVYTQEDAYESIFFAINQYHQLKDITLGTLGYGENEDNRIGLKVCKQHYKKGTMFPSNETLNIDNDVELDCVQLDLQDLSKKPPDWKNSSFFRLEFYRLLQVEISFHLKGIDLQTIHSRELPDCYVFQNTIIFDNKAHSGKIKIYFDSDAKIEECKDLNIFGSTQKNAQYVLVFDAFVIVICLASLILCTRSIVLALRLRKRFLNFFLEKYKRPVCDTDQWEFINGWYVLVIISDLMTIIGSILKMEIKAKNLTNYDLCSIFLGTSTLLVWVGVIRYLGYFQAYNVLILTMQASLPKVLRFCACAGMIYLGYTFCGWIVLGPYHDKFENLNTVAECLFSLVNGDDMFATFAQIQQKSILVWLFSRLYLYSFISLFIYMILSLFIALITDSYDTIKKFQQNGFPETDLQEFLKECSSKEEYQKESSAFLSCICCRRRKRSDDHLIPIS
Method in brief: (§1)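 Agonist activity is scored as percent of plate controls from Fluo4 fluorescence after dye-loaded, doxycycline-induced HEK-293 Trex cells meet compound in high-calcium (10 mM) Ringer's. Compounds run in half-log dilutions from 20 micromolar final, in triplicate.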

[3] = biological target: T2, TRPML3 (Homo sapiens, UniProt Q8TDD5); assay: Fluorescent TRPML3 assay (performed as for TRPML1, substituting the TRPML3 subtype)
T2 construct: expressed in transfected cells
T2 sequence (Q8TDD5 1-553): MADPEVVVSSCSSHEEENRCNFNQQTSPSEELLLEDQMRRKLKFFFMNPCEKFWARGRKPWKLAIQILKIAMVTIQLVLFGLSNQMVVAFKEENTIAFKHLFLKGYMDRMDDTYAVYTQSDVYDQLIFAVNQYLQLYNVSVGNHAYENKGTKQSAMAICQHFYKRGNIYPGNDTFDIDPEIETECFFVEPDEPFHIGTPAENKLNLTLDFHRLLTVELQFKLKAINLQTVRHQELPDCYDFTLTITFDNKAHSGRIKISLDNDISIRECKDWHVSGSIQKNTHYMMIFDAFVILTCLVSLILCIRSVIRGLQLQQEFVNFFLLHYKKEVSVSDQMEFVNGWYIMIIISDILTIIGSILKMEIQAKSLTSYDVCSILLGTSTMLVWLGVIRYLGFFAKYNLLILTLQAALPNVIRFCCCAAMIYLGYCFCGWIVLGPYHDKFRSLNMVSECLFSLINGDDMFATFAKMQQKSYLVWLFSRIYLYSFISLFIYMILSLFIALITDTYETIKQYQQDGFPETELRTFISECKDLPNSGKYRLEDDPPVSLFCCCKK
Method in brief: as §1

TRPML1, sequence (Q9GZU1 whole entry L15A/L16A/L577A/L578A, form open): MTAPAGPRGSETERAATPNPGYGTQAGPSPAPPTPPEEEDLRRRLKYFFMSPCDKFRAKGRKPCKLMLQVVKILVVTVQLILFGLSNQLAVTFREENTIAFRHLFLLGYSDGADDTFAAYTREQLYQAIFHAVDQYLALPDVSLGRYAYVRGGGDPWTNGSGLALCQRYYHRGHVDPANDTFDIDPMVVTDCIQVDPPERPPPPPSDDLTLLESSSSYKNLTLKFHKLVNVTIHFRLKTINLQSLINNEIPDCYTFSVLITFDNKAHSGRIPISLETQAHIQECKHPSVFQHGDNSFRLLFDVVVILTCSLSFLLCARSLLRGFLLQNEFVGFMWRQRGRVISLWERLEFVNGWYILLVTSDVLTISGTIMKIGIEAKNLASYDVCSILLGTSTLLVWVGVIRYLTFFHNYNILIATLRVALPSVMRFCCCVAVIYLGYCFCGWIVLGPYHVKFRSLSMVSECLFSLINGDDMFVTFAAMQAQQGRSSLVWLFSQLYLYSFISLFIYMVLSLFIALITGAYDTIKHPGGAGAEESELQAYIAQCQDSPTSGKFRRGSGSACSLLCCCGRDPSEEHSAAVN

SMILES	EC50 [1] [nM]	EC50 [2] [nM]	EC50 [3] [nM]
C[C@H]1CN(C(=O)OC(C)(C)C)CCN1c1ncnc2c1c(C1CC1)cn2-c1cc(C#N)n(C)c1 [Compound 445, tert-butyl (S)-4-(7-(5-cyano-1-methyl-1H-pyrrol-3-yl)-5-cyclopropyl-7H-pyrrolo[2,3-d]pyrimidin-4-yl)-3-methylpiperazine-1-carboxylate]	< 100	100 to 500	< 100
C[C@H]1CN(C(=O)OC(C)(C)C)CCN1c1ncnc2c1c(-c1ccccc1F)cn2-c1cc(C#N)cnn1 [Compound 447, tert-butyl (S)-4-(7-(5-cyanopyridazin-3-yl)-5-(2-fluorophenyl)-7H-pyrrolo[2,3-d]pyrimidin-4-yl)-3-methylpiperazine-1-carboxylate]	< 100	< 100	< 100
C[C@H]1CN(C(=O)OC(C)(C)C)CCN1c1ncnc2c1c(-c1ccccc1F)cn2-c1cnnc(C#N)c1 [Compound 448, tert-butyl (S)-4-(7-(6-cyanopyridazin-4-yl)-5-(2-fluorophenyl)-7H-pyrrolo[2,3-d]pyrimidin-4-yl)-3-methylpiperazine-1-carboxylate]	< 100	100 to 500	< 100
C[C@H]1CN(C(=O)OC(C)(C)C)CCN1c1nccc2c1c(-c1ccccc1F)cn2-c1cc(C#N)ccn1 [Compound 449, tert-butyl (S)-4-(1-(4-cyanopyridin-2-yl)-3-(2-fluorophenyl)-1H-pyrrolo[3,2-c]pyridin-4-yl)-3-methylpiperazine-1-carboxylate]	< 100	100 to 500	< 100
C[C@H]1CN(C(=O)OC(C)(C)C)CCN1c1ncnc2c1c(-c1ccccc1F)cn2-c1ccnnc1 [Compound 451, tert-butyl (S)-4-(5-(2-fluorophenyl)-7-(pyridazin-4-yl)-7H-pyrrolo[2,3-d]pyrimidin-4-yl)-3-methylpiperazine-1-carboxylate]	100 to 500	> 2000	100 to 500
C[C@@H]1CN(c2ncnc3c2c(-c2ccccc2F)cn3-c2cc(F)ccn2)[C@@H](C)CN1C(=O)OC(C)(C)C [Compound 452, tert-butyl (2R,5S)-4-(5-(2-fluorophenyl)-7-(4-fluoropyridin-2-yl)-7H-pyrrolo[2,3-d]pyrimidin-4-yl)-2,5-dimethylpiperazine-1-carboxylate]	< 100	100 to 500	< 100
C[C@@H]1CN(c2ncnc3c2c(-c2ccccc2F)cn3-c2cc(Cl)ccn2)[C@@H](C)CN1C(=O)OC(C)(C)C [Compound 454, tert-butyl (2R,5S)-4-(7-(4-chloropyridin-2-yl)-5-(2-fluorophenyl)-7H-pyrrolo[2,3-d]pyrimidin-4-yl)-2,5-dimethylpiperazine-1-carboxylate]	< 100	< 100	< 100
Cc1nccnc1-c1cn(-c2cc(C#N)ccn2)c2ncnc(N3C[C@@H](C)N(C(=O)OC(C)(C)C)C[C@@H]3C)c12 [Compound 458, tert-butyl (2R,5S)-4-(7-(4-cyanopyridin-2-yl)-5-(3-methylpyrazin-2-yl)-7H-pyrrolo[2,3-d]pyrimidin-4-yl)-2,5-dimethylpiperazine-1-carboxylate]	< 100	100 to 500	100 to 500
C[C@@H]1CN(c2ncnc3c2c(-c2ccccc2F)cn3-c2nccc(C#N)n2)[C@@H](C)CN1C(=O)OC(C)(C)C [Compound 460, tert-butyl (2R,5S)-4-(7-(4-cyanopyrimidin-2-yl)-5-(2-fluorophenyl)-7H-pyrrolo[2,3-d]pyrimidin-4-yl)-2,5-dimethylpiperazine-1-carboxylate]	< 100	100 to 500	< 100
Cc1nc(-n2cc(-c3ccccc3F)c3c(N4CCN(C(=O)OC(C)(C)C)C[C@@H]4C)ncnc32)sc1C#N [Compound 463, tert-butyl (S)-4-(7-(5-cyano-4-methylthiazol-2-yl)-5-(2-fluorophenyl)-7H-pyrrolo[2,3-d]pyrimidin-4-yl)-3-methylpiperazine-1-carboxylate]	< 100	< 100	< 100

More lines, now with the values ahead:

EC50 [1] [nM]	EC50 [2] [nM]	EC50 [3] [nM]	SMILES
< 100	100 to 500	< 100	C[C@H]1CN(C(=O)OC(C)(C)C)CCN1c1nccc2c1c(C1CC1)cn2-c1cc(C#N)ccn1 [Compound 446, tert-butyl (S)-4-(1-(4-cyanopyridin-2-yl)-3-cyclopropyl-1H-pyrrolo[3,2-c]pyridin-4-yl)-3-methylpiperazine-1-carboxylate]
< 100	100 to 500	< 100	C[C@H]1CN(C(=O)OC(C)(C)C)CCN1c1ncnc2c1c(C1CC1)cn2-c1cc(F)ccn1 [Compound 453, tert-butyl (S)-4-(5-cyclopropyl-7-(4-fluoropyridin-2-yl)-7H-pyrrolo[2,3-d]pyrimidin-4-yl)-3-methylpiperazine-1-carboxylate]
< 100	100 to 500	< 100	CC(C)(C)OC(=O)N1CCN(c2ncnc3c2c(-c2ccccc2F)cn3-c2ncc(C#N)s2)CC1 [Compound 455, tert-butyl 4-(7-(5-cyanothiazol-2-yl)-5-(2-fluorophenyl)-7H-pyrrolo[2,3-d]pyrimidin-4-yl)piperazine-1-carboxylate]
500 to 2000	500 to 2000	100 to 500	C[C@H]1CN(C(=O)OC(C)(C)C)CCN1c1ncnc2c1c(C1CC1)cn2-c1ccc(C#N)n1C [Compound 456, tert-butyl (S)-4-(7-(5-cyano-1-methyl-1H-pyrrol-2-yl)-5-cyclopropyl-7H-pyrrolo[2,3-d]pyrimidin-4-yl)-3-methylpiperazine-1-carboxylate]
< 100	< 100	< 100	C[C@H]1CN(C(=O)OC(C)(C)C)CCN1c1ncnc2c1c(C1CC1)cn2-c1cc(Cl)ccn1 [Compound 457, tert-butyl(S)-4-(7-(4-chloropyridin-2-yl)-5-cyclopropyl-7H-pyrrolo[2,3-d]pyrimidin-4-yl)-3-methylpiperazine-1-carboxylate]
< 100	100 to 500	< 100	Cc1nccnc1-c1cn(-c2cccc(Cl)c2)c2ncnc(N3C[C@@H](C)N(C(=O)OC(C)(C)C)C[C@@H]3C)c12 [Compound 461, tert-butyl (2R,5S)-4-(7-(3-chlorophenyl)-5-(3-methylpyrazin-2-yl)-7H-pyrrolo[2,3-d]pyrimidin-4-yl)-2,5-dimethylpiperazine-1-carboxylate]
< 100	100 to 500	< 100	Cc1nccnc1-c1cn(-c2cc(F)cc(F)c2)c2ncnc(N3C[C@@H](C)N(C(=O)OC(C)(C)C)C[C@@H]3C)c12 [Compound 462, tert-butyl (2R,5S)-4-(7-(3,5-difluorophenyl)-5-(3-methylpyrazin-2-yl)-7H-pyrrolo[2,3-d]pyrimidin-4-yl)-2,5-dimethylpiperazine-1-carboxylate]
100 to 500	500 to 2000	< 100	CC(C)(C)OC(=O)N1CCN(c2ncnc3c2c(C2CCOCC2)cn3-c2cccc(Cl)c2)CC1 [Compound 465, tert-butyl 4-(7-(3-chlorophenyl)-5-(tetrahydro-2H-pyran-4-yl)-7H-pyrrolo[2,3-d]pyrimidin-4-yl)piperazine-1-carboxylate]
